Legend:
Hmox1 = test: Relative gene expression of Hmox1 in BMCs (qRT-PCR); type: cell-based, mouse; settings: 2 μM, 4 h; for Hmox1 relative expression: 4% and 1% oxygen
Description: (§1) Primary bone marrow cells (BMCs) were isolated from 8–12-week-old male C57BL/6 mice (25–30 g, AnLab, Czech Republic). Mice were housed under standard conditions. BMCs were isolated as follows: The day before isolation, phosphate-buffered saline (PBS), ACK Lysis Buffer (A10492-01, Thermo Fisher Scientific), and Iscove’s Modified Dulbecco’s Medium (IMDM) (12440-053, Thermo Fisher Scientific) were placed in a hypoxic chamber (InvivO2 400, Baker Ruskinn, UK) with adjustable oxygen control to equilibrate for the target oxygen concentrations. On the day of the experiment, animals were euthanized using ketamine/xylazine, and bilateral femurs were extracted. BMCs were flushed with hypoxic (1% O2 unless stated otherwise) PBS supplemented with 2% fetal bovine serum (FBS; low endotoxin, FB-1101/500, Biosera, France). After hemolysis at room temperature using hypoxic ACK Lysis Buffer, nucleated BMCs were washed with hypoxic PBS + 2% FBS and counted using a TC20 automated cell counter (Bio-Rad). Cells were kept under hypoxic conditions prior to treatment. The medium for BMC culture, consisting of IMDM with 2% FBS and 1% penicillin/streptomycin (LM-A4118/100, Biosera, France), was supplemented with 10 ng/mL mouse IL-3, 10 ng/mL mouse IL-6, and 50 ng/mL mouse stem cell factor - SCF (213-13, 216-16, and 250-03, respectively; all from PeproTech). Cells were cultured at 37 °C in a humidified atmosphere containing 5% CO2 and the specified oxygen concentrations (21%, 4%, or 1%).
For the relative gene expression of nuclear factor erythroid 2-related factor 2 (NRF2, encoded by Nfe2l2), heme oxygenase-1 (Hmox1), and Glutamate-Cysteine Ligase Modifier Subunit (Gclm) (Mm00477784_m1, Mm00516005_m1, Mm00514996_m1, all from Thermo Fisher Scientific), mouse BMC (3 × 10^6 cells) were cultivated on a 6-well plate in 1.5 mL of complete media (see Isolation and culture of primary cells), and then incubated with 2 μM NO2FAs or control (medium only) for 4 h at the specified oxygen levels (21%, 4%, or 1%). Then, the adherent and nonadherent cells were washed with PBS and lysed using a NucleoSpin RNA Plus kit (740984, Machery-Nagel; Germany). The concentration and purity of isolated RNA was assessed using an Infinite M200 Pro spectrophotometer (Tecan, Austria). Total RNA (0.2 μg) was reversely transcribed into first strand cDNA using a RevertAid First Strand cDNA Synthesis kit according to the manufacturer’s protocol (K1622, Thermo Fisher Scientific). qRT-PCR reactions were performed in a LightCycler480 instrument (Roche; Switzerland) using TaqMan FastAdvanced Master Mix for qPCR (4444557, Thermo Fisher Scientific) and the following program was used: uracil-N-glycosylase activation step at 50 °C for 2 min, an initial denaturation step at 95 °C for 2 min, followed by 45 cycles (95 °C for 3 s, 60 °C for 30 s), and a final cooling step at 40 °C for 1 min. Data were normalized to ribosomal protein L32 (Rpl32, Mm02528467_g1, Thermo Fisher Scientific) and presented as 2^–Δcq.
3 Expression of NRF2 and its target genes in response to NO2FA derivatives. BMCs were cultured under 4% or 1% oxygen conditions and treated for 4 h with the tested NO 2 FAs (2 μM) or medium followed by quantification of (A) Nfe2l2, (B) Hmox1, and (C) Gclm with PCR. Results are presented as relative expression across different oxygen culture conditions. Dimethyl fumarate (DMF) was added as a control. Data are expressed as mean ± SD from 3 to 7 independent experiments (n = 3–7), analyzed with one-way ANOVA with Dunnett’s multiple comparisons test compared to the controls (*p < 0.05; **p < 0.01; ***p < 0.001).
Relative expression of (A) Hmox1 and (B) Gclm in different oxygen […]
Figure S 2. Relative expression of (A) Hmox1 and (B) Gclm in different oxygen conditions. BMCs were cultured under varying oxygen conditions (21, 4, and 1%) and treated for 4 hours with the tested 10 -NO₂OA (2 µM) or medium followed by quantification […]
with PCR. […]

NRF2 = NRF2 stabilization in bone marrow cells (Western blot, whole-cell lysates); type: cell-based, mouse; settings: BMCs, 2 μM, 1 h
Description: as §1
Briefly, 1.5 × 10^6 BMCs were placed in 0.2 mL of complete medium in 1.5 mL microtubes and incubated with 2 μM NO2FAs or the control (medium only) for 1 (NRF2), 4 (heme oxygenase-1, HO-1), or 7 (glutamate-cysteine ligase modifier subunit, GCLM) hours at the specified oxygen levels (21%, 4%, or 1%). Cells were then spun down and washed with PBS (from this step onward, cells were processed under atmospheric conditions). Next, cells were lysed in 60 μL RIPA buffer (89901, Thermo Fisher Scientific) containing protease and phosphatase inhibitors cocktail (78442, Thermo Fisher Scientific). Cell lysates were sonicated and centrifuged at 15,000g for 3 min at 4 °C, and 15 μL of lane marker (3900, Thermo Fisher Scientific) was added to the supernatants. Samples were boiled for 3 min at 95 °C. Equal volumes of lysates (15–45 μL/well) were loaded onto 7–15% SDS-polyacrylamide gels. Proteins were then transferred onto PVDF membranes (IPVH85R, EMD Millipore Corp.) and blocked with 5% nonfat dry milk in TBST. Membranes were incubated overnight at 4 °C with the following primary antibodies: anti-β-actin (1:1000; #3700, Cell Signaling Technology), antivinculin (1:10,000; #SAV9264, Sigma-Aldrich), anti-NRF2 (1:500; A308758, Lot 38410, Antibodies.com, UK), anti-HO-1 (1:1000; #43966, Cell Signaling Technology), antihistone H3 (1:2000; #4499, Cell Signaling Technology), or anti-GCLM (1:100; sc-55586, Santa Cruz Biotechnology). This was followed by incubation with corresponding HRP-linked secondary antibodies (antimouse IgG, #7076, 1:1000–5000; or antirabbit IgG, #7074, 1:1000–2000; both from Cell Signaling Technology) for 1 h at room temperature. Protein bands were visualized using an enhanced chemiluminescent substrate (SuperSignal 34577/34095, Thermo Fisher Scientific). The optical densities of detected proteins were measured using ImageJ v1.52 (NIH).
2 Stabilization of NRF2 by tested NO2FA derivatives. NO 2 FA derivatives stabilize NRF2 in mouse bone marrow cells (BMCs). Nucleated BMCs were cultured under varying oxygen conditions (21%, 4%, and 1%) and treated for 1 h with 2 μM of the tested NO 2 FAs, followed by analysis of NRF2 expression in whole-cell lysates. Results are shown as the fold change relative to control cells across different oxygen culture conditions (A–C). Data are expressed as mean ± SD from 3–4 independent experiments (n = 3–4). Statistical analysis was performed using one-way ANOVA with Dunnett’s multiple comparisons test (* p < 0.05).

| SMILES | Hmox1 relative expression (Hmox1) | NRF2 expression (stabilization), fold change relative to control (NRF2; 1% oxygen) | Hmox1 expression at 1% oxygen compared to 21% (Hmox1; 1% vs 21% oxygen) | NRF2 expression (stabilization), fold change relative to control (NRF2; 4% oxygen) | NRF2 expression (stabilization), fold change relative to control (NRF2; 21% oxygen) |
| --- | --- | --- | --- | --- | --- |
| CCCCCCCC/C=C(\CCCCCCCC(=O)O)[N+](=O)[O-] [9-NO2OA, (9E)-9-Nitro-oleic Acid] | significant upregulation | significantly increased | – | – | – |
| CCCCCCCC/C(=C\CCCCCCCC(=O)O)[N+](=O)[O-] [10-NO2OA, (9E)-10-Nitro-oleic Acid] | significant upregulation | significantly increased | significantly upregulated | – | – |
| CCCCCCCCC(CCCCCCCCC(=O)O)[N+](=O)[O-] (centres unmarked) [10-NO2SA, 10-Nitro Stearic acid] | no effects | no effect | – | no effect | no effect |
| CCCCC/C=C\C/C(=C\CCCCCCCC(=O)O)[N+](=O)[O-] [10-NO2LA, (9E,12Z)-10-Nitro Linoleic Acid] | upregulation that was dependent on oxygen levels or specific target genes | – | – | significantly increased | – |
| CCCCCC/C=C/C=C(\CCCCCCCC(=O)O)[N+](=O)[O-] [9-NO2cLA, (9E,11E)-9-Nitro Conjugated Linoleic Acid] | upregulation that was dependent on oxygen levels | nonsignificant increase | – | nonsignificant increase | – |
